Assay results from paper PMC10046095 (2023).

What was measured:
[1] = system: a-TC40 (DNA, aptamer) GTTTGTGTATTACAGTTATGTTACCCTCATTTTTCTGAAC; assay: equilibrium filtration, HPLC; conditions: 100 mM NaCl, 5 mM KCl, 2 mM MgCl2, 1 mM CaCl2; 20 mM Tris/HCl pH 7.6 (binding buffer listed for TC); filter leakage 0.53
[2] = system: a-TCmu (biotinylated, on DynaSA) (RNA, aptamer) GGGCCUAAAACAUACCAGAUCGCCACCCGCGCUUUAAUCUGGAGAGGUGAAGAAUACGACCACCUAGGCUC; assay: bead capture, HPLC; conditions: room temperature, 1 h; eluted with 2 M NaCl and 80 °C
[3] = system: a-TCmu (RNA, aptamer) GGGCCUAAAACAUACCAGAUCGCCACCCGCGCUUUAAUCUGGAGAGGUGAAGAAUACGACCACCUAGGCUC; assay: equilibrium filtration, HPLC; conditions: Na+ 100 mM; Mg2+ 10 mM; K+ (20 mM potassium phosphate buffer); 20 mM potassium phosphate pH 7.5 (presumed)
[4] = system: a-TC8 (amino, on DynaEpoxy) (DNA, aptamer) CGGTGGTG; assay: bead capture, HPLC; conditions: room temperature, 1 h; capture significantly higher than nonsense aptamer
[5] = system: a-TC40 (amino, on DynaEpoxy) (DNA, aptamer) GTTTGTGTATTACAGTTATGTTACCCTCATTTTTCTGAAC; assay: bead capture, HPLC; conditions: room temperature, 1 h; capture significantly higher than nonsense aptamer
[6] = system: a-TCmu (RNA, aptamer) GGGCCUAAAACAUACCAGAUCGCCACCCGCGCUUUAAUCUGGAGAGGUGAAGAAUACGACCACCUAGGCUC; assay: fluorescence titration (intrinsic tetracycline fluorescence); conditions: 100 mM NaCl, 10 mM MgCl2; 20 mM potassium phosphate pH 7.5, 25 °C; fluorescence yield up about 12 times
[7] = system: a-TC76 (DNA, aptamer) CGTACGGAATTCGCTAGCCCCCCGGCAGGCCACGGCTTGGGTTGGTCCCACTGCGCGTGGATCCGAGCTCCACGTG; assay: equilibrium filtration, HPLC; conditions: 100 mM NaCl, 5 mM KCl, 2 mM MgCl2, 1 mM CaCl2; 20 mM Tris/HCl pH 7.6 (binding buffer listed for TC)
[8] = system: a-SDM (DNA, aptamer) GAGGGCAACGAGTGTTTATAGA; assay: equilibrium filtration (3 kD filter), HPLC; conditions: 50 mM NaCl, 5 mM KCl, 5 mM MgCl2; 20 mM Tris/HCl pH 8 (BBSDM)
[9] = system: a-SMZ-b (on DynaSA) (DNA, aptamer) TTAGCTTATGCGTTGGCCGGGATAAGGATCCAGCCGTTGTAGATTTGCGTTCTAACTCTC; assay: bead capture, HPLC; conditions: room temperature, 1 h; around 2% captured, no elution, data not shown
[10] = system: a-SMZ (DNA, aptamer) TTAGCTTATGCGTTGGCCGGGATAAGGATCCAGCCGTTGTAGATTTGCGTTCTAACTCTC; assay: equilibrium filtration, HPLC; conditions: 100 mM NaCl, 5 mM KCl, 2 mM MgCl2, 1 mM CaCl2; 20 mM Tris/HCl pH 7.6 (binding buffer listed for SMZ); highest aptamer 2.5 µM

SMILES: CN(C)[C@@H]1C(=O)C(C(N)=O)=C(O)[C@@]2(O)C(=O)C3=C(O)c4c(O)cccc4[C@@](C)(O)[C@H]3C[C@@H]12
- k [1]: 100 nM
- binding [2]: yes
- k [3]: 64 nM
- binding [4]: yes
- binding [5]: yes
- k [6]: ~ 60 nM
- k [7]: 14 µM

SMILES: COc1cc(NS(=O)(=O)c2ccc(N)cc2)nc(OC)n1
- binding [8]: no

SMILES: Cc1cc(C)nc(NS(=O)(=O)c2ccc(N)cc2)n1
- binding [9]: weak
- k [10]: > 2.5 µM
